Key:
HeLa cells = test: [3H]Adenosine uptake functional cellular assay; assay type: cell-based; conditions: Homo sapiens, HeLa, accumulation of [3H]adenosine into HeLa cells; compound range 10 μM to […]; read-out: Adenosine uptake inhibition IC50
Summary of the method: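 Inhibition of adenosine uptake was measured in HeLa cells (ATCC CCL-2) by following accumulation of tritiated adenosine. Cells were kept overnight at 37° C. with 5% (v/v) CO2, then switched to 40 μL HBSS plus 5% (v/v) FBS. 20 μL of 500 nM [3H]adenosine was added, and uptake was counted on a Topcount NXT reader.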

[1] = target: T1, BTK enzyme (recombinant full-length BTK, hBTK) (Homo sapiens, UniProt Q06187); test: BTK enzyme activity assay, LANCE TR-FRET; assay type: biochemical; conditions: 50 pM hBTK, 2 μM biotin-A5-peptide, 25 μM ATP; 60 min compound & enzyme incubation; read-out: IC50 BTK activity value
T1 construct: recombinant protein from baculovirus-transfected Sf9 cells: full-length BTK, 6HIS-tag cleaved; 6HIS (cleaved yes); made in house; host or cells: baculovirus-transfected Sf9 cells
T1 sequence (Q06187 whole entry): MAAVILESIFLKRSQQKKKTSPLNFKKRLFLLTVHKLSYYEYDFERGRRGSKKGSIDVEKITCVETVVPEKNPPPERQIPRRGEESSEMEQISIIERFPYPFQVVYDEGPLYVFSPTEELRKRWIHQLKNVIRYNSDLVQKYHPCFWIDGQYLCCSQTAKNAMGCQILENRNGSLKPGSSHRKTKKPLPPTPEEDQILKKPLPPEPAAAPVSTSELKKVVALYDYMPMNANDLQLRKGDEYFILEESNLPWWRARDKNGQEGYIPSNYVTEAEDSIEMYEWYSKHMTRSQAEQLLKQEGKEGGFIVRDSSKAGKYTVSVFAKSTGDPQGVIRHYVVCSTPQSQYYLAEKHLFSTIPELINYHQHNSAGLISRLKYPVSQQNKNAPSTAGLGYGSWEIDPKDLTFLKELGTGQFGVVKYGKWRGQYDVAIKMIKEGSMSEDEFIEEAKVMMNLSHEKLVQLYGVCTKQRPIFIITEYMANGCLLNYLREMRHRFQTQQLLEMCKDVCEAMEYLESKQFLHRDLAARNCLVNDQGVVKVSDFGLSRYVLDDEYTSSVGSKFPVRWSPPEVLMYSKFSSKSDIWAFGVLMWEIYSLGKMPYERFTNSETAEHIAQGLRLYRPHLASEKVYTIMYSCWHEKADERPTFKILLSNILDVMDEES

Row | SMILES | IC50 (HeLa cells) [µM] | IC50 [1] [µM]
1 | CCOc1cc(C(=O)Nc2cc(C(F)(F)F)n(C)n2)ccc1-c1nc([C@@H]2CC[C@H]3CCC(=O)N3C2)n2c(F)cnc(N)c12 [Example 163, 4-{8-amino-5-fluoro-3-[(6R,8aS)-3-oxooctahydroindolizin-6-yl]imidazo[1,5-a]pyrazin-1-yl}-3-ethoxy-N-[1-methyl-5-(trifluoromethyl)-1H-pyrazol-3-yl]benzamide] | 2.41 | 0.0031
2 | CCOc1cc(C(=O)Nc2ncc(C)s2)ccc1-c1nc([C@@H]2CC[C@H]3CCC(=O)N3C2)n2c(F)cnc(N)c12 [Example 164, 4-{8-amino-5-fluoro-3-[(6R,8aS)-3-oxooctahydroindolizin-6-yl]imidazo[1,5-a]pyrazin-1-yl}-3-ethoxy-N-(5-methyl-1,3-thiazol-2-yl)benzamide] | 0.817 | 0.0019
3 | Nc1ncc(F)n2c([C@@H]3CC[C@H]4CCC(=O)N4C3)nc(-c3ccc(C(=O)Nc4cc(C(F)(F)F)ccn4)cc3O)c12 [Example 165, 4-{8-amino-5-fluoro-3-[(6R,8aS)-3-oxooctahydroindolizin-6-yl]imidazo[1,5-a]pyrazin-1-yl}-3-hydroxy-N-[4-(trifluoromethyl)pyridin-2-yl]benzamide] | 1.54 | 0.0023
4 | Nc1ncc(F)n2c([C@@H]3CC[C@H]4CCC(=O)N4C3)nc(-c3ccc(C(=O)Nc4cc(C(F)(F)F)ccn4)cc3F)c12 [Example 166, 4-{8-amino-5-fluoro-3-[(6R,8aS)-3-oxooctahydroindolizin-6-yl]imidazo[1,5-a]pyrazin-1-yl}-3-fluoro-N-[4-(trifluoromethyl)pyridin-2-yl]benzamide] | 0.296 | 0.00034
5 | Nc1ncc(F)n2c([C@@H]3CC[C@H]4CCC(=O)N4C3)nc(-c3ccc(C(=O)Nc4cc(C5CC5)ccn4)cc3F)c12 [Example 167, 4-{8-amino-5-fluoro-3-[(6R,8aS)-3-oxooctahydroindolizin-6-yl]imidazo[1,5-a]pyrazin-1-yl}-N-(4-cyclopropylpyridin-2-yl)-3-fluorobenzamide] | 0.318 | 0.0013
6 | Nc1ncc(F)n2c([C@@H]3CC[C@H]4CCC(=O)N4C3)nc(-c3ccc(C(=O)Nc4cc(C5CC5)ccn4)cc3)c12 [Example 168, 4-{8-amino-5-fluoro-3-[(6R,8aS)-3-oxooctahydroindolizin-6-yl]imidazo[1,5-a]pyrazin-1-yl}-N-(4-cyclopropylpyridin-2-yl)benzamide] | 0.285 | 0.0015

Continued, values first:

Row | IC50 (HeLa cells) [µM] | IC50 [1] [µM] | SMILES
7 | 2.95 | 0.0037 | CCOc1cc(C(=O)Nc2cc(C(F)(F)F)ccn2)c(F)cc1-c1nc([C@@H]2CC[C@H]3CCC(=O)N3C2)n2c(F)cnc(N)c12 [Example 169, 4-{8-amino-5-fluoro-3-[(6R,8aS)-3-oxooctahydroindolizin-6-yl]imidazo[1,5-a]pyrazin-1-yl}-5-ethoxy-2-fluoro-N-[4-(trifluoromethyl)pyridin-2-yl]benzamide]
8 | 6.75 | 0.0369 | Nc1nccn2c([C@@H]3CC[C@H]4CCC(=O)N4C3)nc(-c3ccc(C(=O)Nc4cc(C(F)(F)F)[nH]n4)cc3)c12 [Example 170, 4-(8-amino-3-((6R,8aS)-3-oxooctahydroindolizin-6-yl)imidazo[1,5-a]pyrazin-1-yl)-N-(5-(trifluoromethyl)-1H-pyrazol-3-yl)benzamide]
9 | 0.725 | 0.0065 | Cc1cc(NC(=O)c2ccc(-c3nc([C@@H]4CC[C@H]5CCC(=O)N5C4)n4ccnc(N)c34)cc2)nn1C [Example 175, 4-{8-amino-3-[(6R,8aS)-3-oxooctahydroindolizin-6-yl]imidazo[1,5-a]pyrazin-1-yl}-N-(1,5-dimethyl-1H-pyrazol-3-yl)benzamide]
10 | 7.81 | 0.0149 | Cc1nsc(NC(=O)c2ccc(-c3nc([C@@H]4CC[C@H]5CCC(=O)N5C4)n4ccnc(N)c34)cc2)n1 [Example 176, 4-{8-amino-3-[(6R,8aS)-3-oxooctahydroindolizin-6-yl]imidazo[1,5-a]pyrazin-1-yl}-N-(3-methyl-1,2,4-thiadiazol-5-yl)benzamide]

Reference: patent publication US20140206681A1, “BTK INHIBITORS” (priority 2013, published 2014)
